Measurements reported in patent US9592300B2, “Methods of using redox-active surfactants to control polymer interactions” (WISCONSIN ALUMNI RESEARCH FOUNDATION, priority 2005, dated 2017).
Like-named read-outs stand apart in the source and are kept apart here.

Assays:
[1] = Phase behaviour of FS with HM-EHEC; type: physicochemical; settings: 1 wt % HM-EHEC, 10 mM Li2SO4, pH 5
Description: The top layer had low viscosity (similar to that of water) and was mildly cloudy; the bottom layer was yellow and highly viscous, almost gel-like. As the concentration of reduced FS increased, the top layer became more cloudy and the bottom layer became less viscous (up to 5 mmolal). As the concentration of reduced FS was decreased (down to 0.1 mmolal), the top layer cleared and the bottom layer became less viscous. […] The solutions made with oxidized FS were faintly blue and cloudy as the concentration increased (from 0.1 to 0.5 mmolal).

COS-7 cells [2] = tested on: COS-7 cells
Procedure: Preparation of lipoplexes for Transfection Assays.
Cells were then incubated for 48 hours and cell morphology and relative levels of EGFP expression were characterized using phase contrast and fluorescence microscopy.
For these experiments, cells were incubated with lipoplexes for four hours in serum-free medium, followed by incubation in fresh serum-containing medium (see Materials and Methods Section for complete description of transfection procedures).

COS-7 cells [3] = settings: for concentrations at which maximum gene expression is observed: medium with 10% fetal bovine serum
[4] = type: physicochemical; settings: for cloud point: 0.1 wt % EHEC, 0.1M Li2SO4
Procedure: Surfactant-ethyl(hydroxylethyl) cellulose (EHEC) interactions were characterized by observing the clouding temperature of solutions of EHEC containing various concentrations of surfactant.
Sample Preparation. Three samples of each solution were prepared to assess reproducibility. […] The EHEC solution was filtered through 0.22 μm GV Millipore filter, placed under vacuum for 30-45 minutes, then bubbled with argon for another 30-45 minutes. This deaeration procedure was performed for all solutions, including solutions of DTAB.
The solutions of polymer, salt, and surfactant were then mixed to form 0.1 wt % EHEC, 0.1M Li2SO4, and the desired concentration of surfactant. These solutions were deaerated three times and bubbled with argon inside airtight containers. These solutions were stored at 25° C. and measured after 3 hours and 1 day.
They were simply filtered, mixed to the desired concentrations, and stored for one day before measurements of cloud points and light scattering were performed.
Cloud Point Measurements. Solution of EHEC and surfactant were immersed in a temperature bath controlled to within 0.1° C. The temperature was increased by 1° C. every 10 minutes and the solutions were visually inspected for clouding. […] The values reported in this study are based on clouding points measured upon increasing the temperature of the solutions.

[5] = Critical micelle concentration (CMC) in 0.1M Li2SO4; type: physicochemical
[6] = Dynamic light scattering of surfactant micelles (no polymer); type: physicochemical; settings: 0.1M Li2SO4, no polymer, […]° C., center-of-mass diffusion of spheres (200 mmolal DTAB; 25 mmolal reduced FTMA)
[7] = QLS hydrodynamic size of BFDMA solutions without DNA; type: physicochemical; settings: 10 μM BFDMA, Opti-MEM, 25° C.
Procedure: (§1) 1) A solution of 100 μM reduced BFDMA was prepared by dissolving BFDMA (solid) in water.
(§2) 2) A solution of 100 μM oxidized BFDMA was prepared as follows: First, a […] reduced BFDMA solution was prepared by dissolving BFDMA (solid) in 1 mM Li2SO4 aqueous solution, and then the solution was oxidized electrochemically. The resultant oxidized BFDMA solution was diluted with water to give a solution of 100 μM oxidized BFDMA.
150 μl of 100 μM reduced/oxidized BFDMA solution was diluted with 150 μl of water, followed by the addition of 1.2 ml of Opti-MEM. The final BFDMA concentration was 10 μM. QLS measurements were made at 25° C. immediately after the samples were prepared.

pGFP = test: QLS hydrodynamic size of BFDMA/DNA complexes; type: physicochemical; settings: 10 μM BFDMA, 2.4 μg/ml DNA, Opti-MEM, 25° C.
Procedure: as §1, §2
1) 150 μl of 100 μM reduced/oxidized BFDMA solution was diluted with 150 μl of 24 μg/ml pGFP aqueous solution, and the solution was allowed to stand for 20 min at room temperature. 1.2 ml of Opti-MEM was added to the solution to yield a final BFDMA concentration of 10 μM and a final DNA concentration of 2.4 μg/ml. QLS measurements were made at 25° C. immediately after the samples were prepared.

pEGFP-N1 = settings: serum-free cell culture medium
COS-7 cells [8] = test: Live/dead cytotoxicity assay of lipoplexes
[9] = [BFDMA] 6 μM, listed as Ox. BFDMA
[10] = [BFDMA] 8 μM, listed as Ox. BFDMA
[11] = [BFDMA] 10 μM, listed as Ox. BFDMA
[12] = [BFDMA] 20 μM, listed as Ox. BFDMA
[13] = [BFDMA] 60 μM, listed as Ox. BFDMA
[14] = [BFDMA] 6 μM, listed as Red. BFDMA
[15] = [BFDMA] 8 μM, listed as Red. BFDMA
[16] = [BFDMA] 10 μM, listed as Red. BFDMA
[17] = [BFDMA] 20 μM, listed as Red. BFDMA
[18] = [BFDMA] 60 μM, listed as Red. BFDMA
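Wherever Intensity-Avg Diameter is given: dynamic light scattering of lipoplexes formed from BFDMA and pEGFP-N1 plasmid (2.4 µg/ml), scattering angles 30° to 110°, autocorrelation functions analysed with CONTIN.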
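Wherever Number-Avg Diameter is given: dynamic light scattering of lipoplexes formed from BFDMA and pEGFP-N1 plasmid (2.4 µg/ml), scattering angles 30° to 110°, autocorrelation functions analysed with CONTIN.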

## 11-ferrocenylundecylsulfonate [oxidized FS]
[1]
  liquid-liquid phase separation: did not form two coexisting liquid phases

## 11-ferrocenylundecylsulfonate [reduced FS]
[1]
  liquid-liquid phase separation: caused a liquid-liquid phase separation

## C[N+](C)(CCCCCCCCCCC[c-]1cccc1)CCCCCCCCCCC[c-]1cccc1.[Br-].[Fe+2].[Fe+2].c1cc[cH-]c1.c1cc[cH-]c1 [BFDMA, bis(11-ferrocenylundecyl)dimethylammonium bromide]
COS-7 cells [2]; oxidized at 500 mV, then reduced at −44 mV prior to contact with DNA
  transfection activity following electrochemical cycling (EGFP expression): retains transfection activity
COS-7 cells [3]; four hours exposure, 10% fetal bovine serum
  magnitude of gene expression in presence of serum relative to serum-free medium: approximately one order of magnitude lower

## CCCCCCCCCCCC[N+](C)(C)C.[Br-] [DTAB, dodecyltrimethyl ammonium bromide]
[4]; 1 mM DTAB
  clouding temperature compared to solutions free of DTAB: not measurably lowered
[4]; 5 mmolal DTAB (from 32° C. to 26° C.)
  lowering of clouding temperature of EHEC solutions: 6 °C
[4]; 5 mmolal DTAB
  cloud point: 26-27 °C
[4]; DTAB concentrations near its CMC (10 mM)
  cloud point: 14±0.3 °C
[5]
  CMC: 10 mM
[6]
  hydrodynamic diameter of micelles: 4 nm

## O=S(=O)([O-])[O-].[Li+].[Li+] [Li2SO4]
[4]; 0.1% (w/w) EHEC, 1M Li2SO4, pH 2.5
  clouding temperature: less than 6 °C

## C[N+](C)(CCCCCCCCCCC[c-]1cccc1)CCCCCCCCCCC[c-]1cccc1.[Br-].[Fe+2].[Fe+2].c1cc[cH-]c1.c1cc[cH-]c1 [oxidized BFDMA, bis(11-ferrocenylundecyl)dimethylammonium bromide]
[7]; time 0 min, listed as ox
  hydrodynamic size of aggregates w/o DNA: 363.4 nm
[7]; time 120 min, listed as ox
  hydrodynamic size of aggregates w/o DNA: 496 nm
[7]; time 240 min, listed as ox
  hydrodynamic size of aggregates w/o DNA: 511 nm
pGFP; time 0 min, listed as ox
  hydrodynamic size of aggregates w/ DNA: 209.6 nm
pGFP; time 120 min, listed as ox
  hydrodynamic size of aggregates w/ DNA: 221.4 nm
pGFP; time 240 min, listed as ox
  hydrodynamic size of aggregates w/ DNA: 297.2 nm
COS-7 cells [2]; 20 μM lipid, 4 h exposure in serum-free medium, 48 h
  EGFP expression (cell transfection): relatively high levels
COS-7 cells [2]; 2-40 μM lipid, 4 h exposure in serum-free medium, 48 h
  EGFP gene expression, generally: very low levels
COS-7 cells [3]; 2 hours exposure, serum-free
  levels of gene expression versus reduced BFDMA: dramatically lower
COS-7 cells [3]; 12 hour exposure, serum-free, 20 μM
  luciferase expression: in excess of expression mediated by reduced BFDMA
COS-7 cells [3]; four hours exposure
  concentrations at which maximum gene expression is observed: 40 µM and 60 µM
pEGFP-N1; [BFDMA] 2 μM, 600 ng DNA, listed as Ox. BFDMA
  Number-Avg Diameter: 89 (±40) nm
pEGFP-N1; [BFDMA] 2 μM, listed as Ox. BFDMA
  Intensity-Avg Diameter: 196 (±86) nm
pEGFP-N1; [9]
  Intensity-Avg Diameter: 217 (±58) nm
  Number-Avg Diameter: 64 (±25) nm
pEGFP-N1; [10]
  Intensity-Avg Diameter: 228 (±100) nm
  Number-Avg Diameter: 86 (±37) nm
pEGFP-N1; [11]
  Intensity-Avg Diameter: 266 (±212) nm
  Number-Avg Diameter: 110 (±55) nm
pEGFP-N1; [BFDMA] 20 μM
  Number-Avg Diameter: ca. 610 nm
pEGFP-N1; [12]
  Intensity-Avg Diameter: 1163 (±150) nm
  Number-Avg Diameter: 611 (±183) nm
pEGFP-N1; [13]
  Intensity-Avg Diameter: 1497 (±340) nm
  Number-Avg Diameter: 1254 (±512) nm
COS-7 cells [8]; 2 hours exposure, any concentration evaluated (2 μM to 60 μM), OptiMEM
  cytotoxicity relative to DNA alone or commercial controls: not cytotoxic
COS-7 cells [8]; 4 hours exposure, e.g. 40 μM and 60 μM
  toxicity: increases at higher concentrations

## C[N+](C)(CCCCCCCCCCC[c-]1cccc1)CCCCCCCCCCC[c-]1cccc1.[Br-].[Fe+2].[Fe+2].c1cc[cH-]c1.c1cc[cH-]c1 [reduced BFDMA, bis(11-ferrocenylundecyl)dimethylammonium bromide]
[7]; time 0 min, listed as red
  hydrodynamic size of aggregates w/o DNA: 472.8 nm
[7]; time 120 min, listed as red
  hydrodynamic size of aggregates w/o DNA: 1214 nm
[7]; time 240 min, listed as red
  hydrodynamic size of aggregates w/o DNA: 1090.3 nm
pGFP; time 0 min, listed as red
  hydrodynamic size of aggregates w/ DNA: 689.7 nm
pGFP; time 120 min, listed as red
  hydrodynamic size of aggregates w/ DNA: 2613.9 nm
pGFP; time 240 min, listed as red
  hydrodynamic size of aggregates w/ DNA: 2995.5 nm
COS-7 cells [2]; 2 μM lipid, 4 h exposure in serum-free medium, 48 h
  EGFP expression: relatively low levels
COS-7 cells [2]; 10 μM and 20 μM lipid, 4 h exposure in serum-free medium, 48 h
  EGFP expression (transfection): increased significantly
COS-7 cells [2]; 40 μM lipid, 4 h exposure in serum-free medium, 48 h
  EGFP expression (transfection): significantly reduced
COS-7 cells [2]; concentrations above 40 μM
  cell death by phase contrast microscopy: Significant cell death
COS-7 cells [3]; 2 hours exposure, serum-free, 2 μM and 40 μM and 60 μM
  luciferase expression (normalized to total cell protein): low
COS-7 cells [3]; 2 hours exposure, serum-free, 4 μM to 20 μM
  luciferase expression (normalized to total cell protein): significantly higher
COS-7 cells [3]; four and twelve hours exposure, serum-free, 6 μM to 20 μM
  luciferase expression versus Lipofectamine 2000 and TransIT-LT1: comparable to or measured to be in excess of
COS-7 cells [3]; four hours exposure
  concentrations at which maximum gene expression is observed: 20 µM and 40 µM
pEGFP-N1; [BFDMA] 2 μM, 600 ng DNA, listed as Red. BFDMA
  Number-Avg Diameter: 158 (±64) nm
pEGFP-N1; [BFDMA] 2 μM, listed as Red. BFDMA
  Intensity-Avg Diameter: 369 (±74) nm
pEGFP-N1; [14]
  Intensity-Avg Diameter: 603 (±262) nm
  Number-Avg Diameter: 231 (±88) nm
pEGFP-N1; [15]
  Intensity-Avg Diameter: 951 (±504) nm
  Number-Avg Diameter: 297 (±126) nm
pEGFP-N1; [16]
  Intensity-Avg Diameter: 1118 (±426) nm
  Number-Avg Diameter: 219 (±126) nm
pEGFP-N1; [17]
  Intensity-Avg Diameter: 2766 (±725) nm
  Number-Avg Diameter: 1490 (±750) nm
pEGFP-N1; [18]
  Intensity-Avg Diameter: 4777 (±1350) nm
  Number-Avg Diameter: 1921 (±1220) nm
COS-7 cells [8]; 2 hours exposure, 2 μM to 10 μM
  cytotoxicity: not cytotoxic
COS-7 cells [8]; 2 hours exposure, 20 μM
  cytotoxicity: increases slightly
COS-7 cells [8]; 2 hours exposure, 40 μM and 60 μM
  cytotoxicity: substantially cytotoxic
COS-7 cells [8]; 12 hours exposure, 6 μM to 10 μM, versus two or four hours
  cytotoxicity: more cytotoxic
COS-7 cells [8]; 12 hours exposure, 20 μM
  cytotoxicity: cytotoxic
COS-7 cells [8]; two or four hours exposure, 20 μM
  cytotoxicity: not substantially cytotoxic
